Earlier results on two compounds are cited in patent US20090269405A1, “ENZYME MEDIATED DELIVERY SYSTEM” (Appian Labs, LLC, priority 2008, published 2009).

Where two headings read alike, the source gives them in different places.

For data set [1] the following is noted: chronic oral, 100 mg bid.

`CNC(=O)[C@@H](NC(=O)[C@H](CC(C)C)[C@H](O)C(=O)NO)C(C)(C)C` [Marimastat]: the “onset of musculoskeletal toxicity (severe events)” value was 199 days (25 mg daily) and 56 days (75 mg twice daily).

Turning to `C[C@H]1c2cccc(O)c2C(=O)C2=C(O)[C@]3(O)C(=O)C(C(N)=O)=C(O)[C@@H](N(C)C)[C@@H]3[C@@H](O)[C@@H]21` [doxycycline], the “patients who developed abdominal aortic aneurysms” value in data set [1] is “five out of 33”.
